US8080657B2, “Compounds of reverse turn mimetics and the use thereof” (Choongwae Pharma Corporation, priority 2008, dated 2011)
Where two headings read alike, the source gives them in different places. Values belong to the molecule of their own block, whether it stands above or below them.

System: Wnt signaling
Experiment: TopFlash reporter gene bioassay in SW480 cells
Format: cell-based
Details: Homo sapiens, read-out: RGA, IC50 (μM) TopF
[1] = SW480, TopFlash reporter gene assay, inhibition of Wnt signaling

SMILES: C=CCN1CC(=O)N2[C@@H](Cc3ccc(O)cc3)C(=O)N(Cc3cccnc3C3CC3)C[C@@H]2N1C(=O)NCc1ccccc1 [compound 108]
- IC50 [1]: 1.31 ± 0.33 µM

SMILES: C=CCN1CC(=O)N2[C@@H](Cc3ccc(O)cc3)C(=O)N(Cc3cccc(N(C)C(=O)OC)c3)C[C@@H]2N1C(=O)NCc1ccccc1 [compound 109]
- IC50 [1]: 1.35 ± 0.15 µM

SMILES: C=CCN1CC(=O)N2[C@@H](Cc3ccc(OP(=O)(O)O)cc3)C(=O)N(Cc3ccccc3N3CCCC3)C[C@@H]2N1C(=O)NCc1ccccc1 [compound 112]
- IC50 (SW480): 1.41 ± 0.21 µM

SMILES: C=CCN1CC(=O)N2[C@@H](Cc3ccc(O)cc3)C(=O)N(Cc3cccc(N(C)C=O)c3)C[C@@H]2N1C(=O)NCc1ccccc1 [compound 113]
- IC50 [1]: 1.41 ± 0.38 µM

SMILES: C=CCN1CC(=O)N2[C@@H](Cc3ccc(O)cc3)C(=O)N(Cc3cccc(C(=O)N4CCCCC4)c3)C[C@@H]2N1C(=O)NCc1ccccc1 [compound 114]
- IC50 [1]: 1.42 ± 0.51 µM

SMILES: C=CCN1CC(=O)N2[C@@H](Cc3ccc(O)cc3)C(=O)N(Cc3cccc(-c4ccccc4O)c3)C[C@@H]2N1C(=O)NCc1ccccc1 [compound 115]
- IC50 [1]: 1.43 ± 0.27 µM

SMILES: C=CCN1CC(=O)N2[C@@H](Cc3ccc(O)cc3)C(=O)N(Cc3ccc(OC)c(Cl)c3)C[C@@H]2N1C(=O)NCc1ccccc1 [compound 117]
- IC50 [1]: 1.44 ± 0.22 µM

SMILES: C=CCN1CC(=O)N2[C@@H](Cc3ccc(O)cc3)C(=O)N(Cc3cccc(C(=O)O)c3)C[C@@H]2N1C(=O)NCc1ccc(Cl)cc1Cl [compound 119]
- IC50 [1]: 1.51 ± 0.16 µM

SMILES: C=CCN1CC(=O)N2[C@@H](Cc3ccc(O)cc3)C(=O)N(Cc3cccc(Cl)c3N(C)C)C[C@@H]2N1C(=O)NCc1ccccc1 [compound 122]
- IC50 [1]: 1.54 ± 0.07 µM

SMILES: C=CCOc1ccc(CN2C[C@H]3N(C(=O)CN(CC=C)N3C(=O)NCc3ccccc3)[C@@H](Cc3ccc(O)cc3)C2=O)cc1 [compound 123]
- IC50 [1]: 1.55 ± 0.21 µM

SMILES: C=CCN1CC(=O)N2[C@@H](Cc3ccc(O)cc3)C(=O)N(Cc3cccc4c3OC(F)(F)O4)C[C@@H]2N1C(=O)NCc1ccccc1 [compound 124]
- IC50 [1]: 1.56 ± 0.33 µM

SMILES: C=CCN1CC(=O)N2[C@@H](Cc3ccc(O)cc3)C(=O)N(Cc3cccnc3Br)C[C@@H]2N1C(=O)NCc1ccccc1 [compound 125]
- IC50 [1]: 1.57 ± 0.29 µM

SMILES: C=CCN1CC(=O)N2[C@@H](Cc3ccc(O)cc3)C(=O)N(Cc3cccc(-c4cccc(C#N)c4)c3)C[C@@H]2N1C(=O)NCc1ccccc1 [compound 126]
- IC50 [1]: 1.58 ± 0.27 µM

SMILES: C=CCN1CC(=O)N2[C@@H](Cc3ccc(O)cc3)C(=O)N(Cc3ccccc3N(C)Cc3ccccc3)C[C@@H]2N1C(=O)NCc1ccccc1 [compound 128]
- IC50 [1]: 1.61 ± 0.59 µM

SMILES: C=CCN1CC(=O)N2[C@@H](Cc3ccc(O)cc3)C(=O)N(Cc3cccc(C(=O)OC)c3[N+](=O)[O-])C[C@@H]2N1C(=O)NCc1ccccc1 [compound 131]
- IC50 [1]: 1.66 ± 0.27 µM

Other lines, results leading:

- IC50 [1]: 1.28 ± 0.1 µM
SMILES: C=CCN1CC(=O)N2[C@@H](Cc3ccc(O)cc3)C(=O)N(Cc3cccc(C(=O)NCC4CCCO4)c3)C[C@@H]2N1C(=O)NCc1ccccc1 (some centres unmarked) [compound 106]

- IC50 [1]: 1.3 ± 0.2 µM
SMILES: C=CCN1CC(=O)N2[C@@H](Cc3ccc(O)cc3)C(=O)N(Cc3ccc(F)c4scnc34)C[C@@H]2N1C(=O)NCc1cccs1 [compound 107]

- IC50 [1]: 1.41 ± 0.21 µM
SMILES: C=CCN1CC(=O)N2[C@@H](Cc3ccc(O)cc3)C(=O)N(Cc3csc4cc(NC=O)ccc34)C[C@@H]2N1C(=O)NCc1ccccc1 [compound 111]

- IC50 [1]: 1.43 ± 0.26 µM
SMILES: C=CCN1CC(=O)N2C(CN(Cc3cccc(C#CC(C)(C)C)n3)C(=O)[C@@H]2Cc2ccc(O)cc2)N1C(=O)NCc1ccccc1 (some centres unmarked) [compound 116]

- IC50 [1]: 1.53 ± 0.17 µM
SMILES: C=CCN1CC(=O)N2[C@@H](Cc3ccc(O)cc3)C(=O)N(Cc3cccc(-c4ccc(OC)nc4)c3)C[C@@H]2N1C(=O)NCc1ccccc1 [compound 121]

- IC50 [1]: 1.61 ± 0.31 µM
SMILES: C=CCN1CC(=O)N2[C@@H](Cc3ccc(O)cc3)C(=O)N(Cc3cccc(-c4ccccc4OC)c3)C[C@@H]2N1C(=O)NCc1ccccc1 [compound 127]

- IC50 [1]: 1.64 ± 0.27 µM
SMILES: C=CCN1CC(=O)N2[C@@H](Cc3ccc(O)cc3)C(=O)N(Cc3ccc(OC)c(Br)c3)C[C@@H]2N1C(=O)NCc1ccccc1 [compound 129]

- IC50 [1]: 1.66 ± 0.18 µM
SMILES: C=CCN1CC(=O)N2[C@@H](Cc3ccc(O)cc3)C(=O)N(Cc3cccc(C(=O)NCCC4=CCCCC4)c3)C[C@@H]2N1C(=O)NCc1ccccc1 [compound 130]
